# Source: PubChem BioAssay AID1259407 (Chemical Carcinogenesis Research Information System (CCRIS), 2018)
# “Also recorded” adds a separate entry of the source. The source made the active and inactive calls. The rule behind the calls is not given here.
# Test system: CCRIS mutagenicity, Ames/micronucleus/aberration tests
# Assay: CCRIS mutagenicity studies
compound,measurement,setting,value
CC(=O)Nc1ccc2c(c1)Cc1ccccc1-2,mutagenic call,"End Point: IN VITRO MICRONUCLEUS, Test System: AHH-1 CELLS, Metabolic Activation: NONE",active; positive
same,mutagenic call,"End Point: IN VITRO MICRONUCLEUS, Test System: MCL-5 CELLS, Metabolic Activation: NONE",active; positive
same,mutagenic call,"End Point: IN VITRO MICRONUCLEUS, Test System: V79 CELLS, Metabolic Activation: RAT, LIVER, S-9, AROCLOR 1254",active; positive
same,mutagenic call,"End Point: In vivo micronucleus, Test System: Micronucleated hepatocytes, Species: Rat, Strain/Sex: F344/Male, Route: Oral",active; positive (p<0.01 at highest dose); also recorded: active; positive (p<0.05 at lower dose and p<0.01 at higher dose)
same,mutagenic call,"Test System: AMES SALMONELLA TYPHIMURIUM, Strain/Indicator: DJ400, Metabolic Activation: HUMAN, HEPATOMA CELLS, BENZO[A]ANTHRACENE, Method: PREINCUBATION",active; positive
same,mutagenic call,"Test System: AMES SALMONELLA TYPHIMURIUM, Strain/Indicator: DJ400, Metabolic Activation: HUMAN, HEPATOMA CELLS, Method: PREINCUBATION",active; positive
same,mutagenic call,"Test System: AMES SALMONELLA TYPHIMURIUM, Strain/Indicator: DJ400, Metabolic Activation: RAT, LIVER, S-9, AROCLOR 1254, Method: PREINCUBATION",active; positive
same,mutagenic call,"Test System: AMES SALMONELLA TYPHIMURIUM, Strain/Indicator: DJ400, Metabolic Activation: RAT, LIVER, S-9, Method: PREINCUBATION",active; positive
same,mutagenic call,"Test System: AMES SALMONELLA TYPHIMURIUM, Strain/Indicator: DJ460, Metabolic Activation: HUMAN, HEPATOMA CELLS, BENZO[A]ANTHRACENE, Method: PREINCUBATION",active; positive
same,mutagenic call,"Test System: AMES SALMONELLA TYPHIMURIUM, Strain/Indicator: DJ460, Metabolic Activation: HUMAN, HEPATOMA CELLS, Method: PREINCUBATION",active; positive
same,mutagenic call,"Test System: AMES SALMONELLA TYPHIMURIUM, Strain/Indicator: DJ460, Metabolic Activation: RAT, LIVER, S-9, AROCLOR 1254, Method: PREINCUBATION",active; positive
same,mutagenic call,"Test System: AMES SALMONELLA TYPHIMURIUM, Strain/Indicator: DJ460, Metabolic Activation: RAT, LIVER, S-9, Method: PREINCUBATION",active; positive
same,mutagenic call,"Test System: AMES SALMONELLA TYPHIMURIUM, Strain/Indicator: TA97, Metabolic Activation: NONE, Method: STANDARD PLATE",inactive; negative
same,mutagenic call,"Test System: AMES SALMONELLA TYPHIMURIUM, Strain/Indicator: TA97, Metabolic Activation: RAT, LIVER, S-9, AROCLOR 1254, Method: STANDARD PLATE",inactive; negative
same,mutagenic call,"Test System: AMES SALMONELLA TYPHIMURIUM, Strain/Indicator: TA98, Metabolic Activation: GUINEA PIG, LIVER, HEPATOCYTES",active; positive
same,mutagenic call,"Test System: AMES SALMONELLA TYPHIMURIUM, Strain/Indicator: TA98, Metabolic Activation: GUINEA PIG, LIVER, S-9, Method: STANDARD PLATE",active; positive
same,mutagenic call,"Test System: AMES SALMONELLA TYPHIMURIUM, Strain/Indicator: TA98, Metabolic Activation: HAMSTER, LIVER, HEPATOCYTES",active; positive
same,mutagenic call,"Test System: AMES SALMONELLA TYPHIMURIUM, Strain/Indicator: TA98, Metabolic Activation: HAMSTER, LIVER, S-9, Method: STANDARD PLATE",active; positive
same,mutagenic call,"Test System: AMES SALMONELLA TYPHIMURIUM, Strain/Indicator: TA98, Metabolic Activation: HUMAN, FETAL LIVER, S-9",inactive; negative
same,mutagenic call,"Test System: AMES SALMONELLA TYPHIMURIUM, Strain/Indicator: TA98, Metabolic Activation: HUMAN, HEPATOMA CELLS, BENZO[A]ANTHRACENE, Method: PREINCUBATION",active; positive
same,mutagenic call,"Test System: AMES SALMONELLA TYPHIMURIUM, Strain/Indicator: TA98, Metabolic Activation: HUMAN, HEPATOMA CELLS, Method: PREINCUBATION",active; positive
same,mutagenic call,"Test System: AMES SALMONELLA TYPHIMURIUM, Strain/Indicator: TA98, Metabolic Activation: HUMAN, RED BLOOD CELL, CYTOSOL, Method: PREINCUBATION",active; positive
same,mutagenic call,"Test System: AMES SALMONELLA TYPHIMURIUM, Strain/Indicator: TA98, Metabolic Activation: MOUSE, LIVER, HEPATOCYTES",inactive; negative
same,mutagenic call,"Test System: AMES SALMONELLA TYPHIMURIUM, Strain/Indicator: TA98, Metabolic Activation: MOUSE, LIVER, S-9, Method: STANDARD PLATE",active; positive
same,mutagenic call,"Test System: AMES SALMONELLA TYPHIMURIUM, Strain/Indicator: TA98, Metabolic Activation: NONE, Method: SPIRAL ASSAY",inactive; negative
same,mutagenic call,"Test System: AMES SALMONELLA TYPHIMURIUM, Strain/Indicator: TA98, Metabolic Activation: NONE, Method: STANDARD PLATE",inactive; negative
same,mutagenic call,"Test System: AMES SALMONELLA TYPHIMURIUM, Strain/Indicator: TA98, Metabolic Activation: RABBIT, LIVER, MICROSOMAL FRACTION, Method: STANDARD PLATE",active; positive
same,mutagenic call,"Test System: AMES SALMONELLA TYPHIMURIUM, Strain/Indicator: TA98, Metabolic Activation: RABBIT, LUNG, MICROSOMAL FRACTION, Method: STANDARD PLATE",active; positive
same,mutagenic call,"Test System: AMES SALMONELLA TYPHIMURIUM, Strain/Indicator: TA98, Metabolic Activation: RAT, BLADDER, S-9, PCB, Method: FLUCTUATION TEST",inactive; negative
same,mutagenic call,"Test System: AMES SALMONELLA TYPHIMURIUM, Strain/Indicator: TA98, Metabolic Activation: RAT, LIVER, HEPATOCYTES",inactive; negative
same,mutagenic call,"Test System: AMES SALMONELLA TYPHIMURIUM, Strain/Indicator: TA98, Metabolic Activation: RAT, LIVER, S-9, ACRYLAMIDE, Method: STANDARD PLATE",active; positive
same,mutagenic call,"Test System: AMES SALMONELLA TYPHIMURIUM, Strain/Indicator: TA98, Metabolic Activation: RAT, LIVER, S-9, AROCLOR 1254, Method: PREINCUBATION",active; positive
same,mutagenic call,"Test System: AMES SALMONELLA TYPHIMURIUM, Strain/Indicator: TA98, Metabolic Activation: RAT, LIVER, S-9, AROCLOR 1254, Method: SPIRAL ASSAY",active; positive
same,mutagenic call,"Test System: AMES SALMONELLA TYPHIMURIUM, Strain/Indicator: TA98, Metabolic Activation: RAT, LIVER, S-9, PHENOBARBITAL, Method: STANDARD PLATE",active; positive
same,mutagenic call,"Test System: AMES SALMONELLA TYPHIMURIUM, Strain/Indicator: TA98, Metabolic Activation: RAT, LIVER, S-9, Method: PREINCUBATION",active; positive
same,mutagenic call,"Test System: AMES SALMONELLA TYPHIMURIUM, Strain/Indicator: TA98, Metabolic Activation: RAT, LIVER, S-9, Method: STANDARD PLATE",active; positive
same,mutagenic call,"Test System: AMES SALMONELLA TYPHIMURIUM, Strain/Indicator: TA100, Metabolic Activation: NONE, Method: SPIRAL ASSAY",inactive; negative
same,mutagenic call,"Test System: AMES SALMONELLA TYPHIMURIUM, Strain/Indicator: TA100, Metabolic Activation: NONE, Method: STANDARD PLATE",inactive; negative
same,mutagenic call,"Test System: AMES SALMONELLA TYPHIMURIUM, Strain/Indicator: TA100, Metabolic Activation: RAT, BLADDER, S-9, PCB, Method: FLUCTUATION TEST",inactive; negative
same,mutagenic call,"Test System: AMES SALMONELLA TYPHIMURIUM, Strain/Indicator: TA100, Metabolic Activation: RAT, LIVER, S-9, ACRYLAMIDE, Method: STANDARD PLATE",active; positive
same,mutagenic call,"Test System: AMES SALMONELLA TYPHIMURIUM, Strain/Indicator: TA100, Metabolic Activation: RAT, LIVER, S-9, AROCLOR 1254, Method: SPIRAL ASSAY",inactive; negative
same,mutagenic call,"Test System: AMES SALMONELLA TYPHIMURIUM, Strain/Indicator: TA100, Metabolic Activation: RAT, LIVER, S-9, KC500 OR PHENOBARBITAL, Method: LIQUID SUSPENSION",active; positive
same,mutagenic call,"Test System: AMES SALMONELLA TYPHIMURIUM, Strain/Indicator: TA100, Metabolic Activation: RAT, LIVER, S-9, PHENOBARBITAL, Method: STANDARD PLATE",active; positive
same,mutagenic call,"Test System: AMES SALMONELLA TYPHIMURIUM, Strain/Indicator: TA1535, Metabolic Activation: NONE, Method: SPIRAL ASSAY",inactive; negative
same,mutagenic call,"Test System: AMES SALMONELLA TYPHIMURIUM, Strain/Indicator: TA1535, Metabolic Activation: NONE, Method: STANDARD PLATE",inactive; negative
same,mutagenic call,"Test System: AMES SALMONELLA TYPHIMURIUM, Strain/Indicator: TA1535, Metabolic Activation: RAT, LIVER, S-9, AROCLOR 1254, Method: SPIRAL ASSAY",inactive; negative
same,mutagenic call,"Test System: AMES SALMONELLA TYPHIMURIUM, Strain/Indicator: TA1535, Metabolic Activation: RAT, LIVER, S-9, AROCLOR 1254, Method: STANDARD PLATE",inactive; negative
same,mutagenic call,"Test System: AMES SALMONELLA TYPHIMURIUM, Strain/Indicator: TA1537, Metabolic Activation: NONE, Method: SPIRAL ASSAY",inactive; negative
